Key:
Human TGFβR-1 = molecular target: T1, Human TGFβR-1 (Homo sapiens, UniProt P36897); assay: In vitro enzyme assay: inhibition of TGFβR-1 (ADP-Glo kinase assay); assay type: biochemical; details: TGFβR-1 kinase 50 ng/well, 50 μM ATP, 120 min RT
T1 construct: purchased Promega V4092
T1 sequence (P36897 34-503): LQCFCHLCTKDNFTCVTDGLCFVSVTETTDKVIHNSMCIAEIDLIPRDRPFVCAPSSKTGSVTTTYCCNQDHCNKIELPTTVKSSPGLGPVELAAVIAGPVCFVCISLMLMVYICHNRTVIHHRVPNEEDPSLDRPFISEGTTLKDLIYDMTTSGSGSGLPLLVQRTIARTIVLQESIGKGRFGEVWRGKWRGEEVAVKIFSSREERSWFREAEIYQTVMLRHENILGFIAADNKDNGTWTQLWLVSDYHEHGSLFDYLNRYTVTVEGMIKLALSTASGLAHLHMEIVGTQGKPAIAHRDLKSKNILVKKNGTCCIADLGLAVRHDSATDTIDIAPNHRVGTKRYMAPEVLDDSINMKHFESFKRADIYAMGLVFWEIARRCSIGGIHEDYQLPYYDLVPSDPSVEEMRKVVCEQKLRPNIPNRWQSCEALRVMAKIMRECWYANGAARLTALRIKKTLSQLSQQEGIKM
From the text: In the present application are used the following abbreviations, with the corresponding definitions: • AcOH: Acetic Acid • ACVR2B: activin A receptor, type IIB • ALKn: activin receptor-like kinase n • ATP: adenosin triphosphate • Boc2O: tert-butyl dicarbonate • Boc: tert-Butoxycarbonyl • Clint: Intrinsic clearance • DIPEA: N,N-Diisopropylethylamine • DMA: Dimethylacetamide • DMAP: 4-Dimethylaminopyridine • DMF: N,N-Dimethylformamide • DMSO: Dimethyl sulfoxide • EDCl: N-(3-Dimethylaminopropyl)-N′-ethylcarbodiimide) • Et3N: Triethylamine • EtOAc: Ethyl acetate • EtOH: ethanol • FBS: Fetal bovine serum • H: hour • HATU: 1-[Bis(dimethylamino)methylene]-1H-1,2,3-triazolo[4,5-b]pyridinium 3-oxide hexafluorophosphate • HOBT: Hydroxybenzotriazole • HPLC: High-performance liquid chromatography • ^1H-NMR: Proton nuclear magnetic resonance • K2EDTA: ethylenediaminetetracetic acid dipotassium salt • LC: Liquid chromatography • LiHMDS: Lithium bis(trimethylsilyl)amide • LLOQ: lower limit of quantification • MeCN: Acetonitrile • MeOH: Methanol • Min: minutes • MS: Mass spectroscopy • MTBE: Methyl tert-butyl ether • NBS: N-Bromosuccinimide • NaCMC: Sodium carboxymethyl cellulose • Rt: retention time • RT: room temperature • Sem: 2-(Trimethylsilyl)ethoxymethyl • TGFβ: transforming growth factor-β • THF: Tetrahydrofuran • THF:EtOH: Tetrahydrofuran:ethanol • UPLC: ultra high-performance liquid chromatography • UV: Ultraviolet Pharmacological Activity In Vitro Enzyme Assay: Inhibition of TGFβR-1 Human TGFβR-1 inhibition experiments were carried out in a white 384-microplate low flange (Corning 3572) with ADP-Glo kinase Assay Kit (Promega V9101) and TGFβR-1 Kinase Enzyme System (Promega V4092). Test compounds and standard Galunisertib (Cayman 15312), 50 ng/well TGFβR-1 kinase and 50 μM ATP were added in a final volume of 10 μL/well, using Reaction buffer supplied by kit as assay buffer. The reaction mixture was incubated in gentle shaking for 120 min at RT, after incubation of 10 μL of ADP-Glo Reagent was added and incubated in gentle shaking for 40 min at RT. 20 μL of Kinase Detection Reagent was added and plate was incubated in gentle shaking for 30 min at RT. Luminescence (1000 ms) was measured in Perkin Elmer EnSpire Multimode plate reader. Results

[1] = Determination of plasma stability in human plasma; assay type: in vitro ADME; details: 10 μM, 37° C.
Description: Determination of Plasma Stability of Some Compounds
Human plasma pooled from healthy donors extracted in citrate tubes was employed in the assay. Briefly, plates containing 10 μM compounds in plasma (total volume: 50 μL) were incubated at 37° C. at the different times (0, 30, 120 and 360 min). Then 100 μl Acetonitrile were added for precipitating plasma protein, and the plate was centrifuged at 46000 g for 60 min at 5° C. Supernatant was taken and analysed by UPLC/MS/MS for sample quantification. Stationary phase: Reverse phase Acquity UPLC® BEH C18 1.7 μm (2.1 mm×50 mm) (Waters). Mobile phase: 0.1% Formic acid water/0.1% formic acid in acetonitrile.
Flow: 0.6 ml/min. The chromatographic equipment employed was an UPL QSM Waters Acquity. Compound concentrations were calculated from the MS peak areas.

ALK-5 = molecular target: T2, ALK-5 (Homo sapiens, UniProt P36897); assay: Determination of the intracellular TGF-beta kinase activity (ALK-5), AlphaLISA SureFire p-SMAD3 in A549 cells; assay type: cell-based; details: A549 cell line, TGF-β2 activated, p-SMAD3(Ser423/425)
T2 construct: endogenous in cells; host or cells: A549
T2 sequence (P36897 34-503): T1 sequence (P36897 34-503)
Description: Determination of the Intracellular TGF-Beta Kinase Activity (ALK-5)
The experiments were carried out in A549 cell line. 30000 cells were seeded in 200 μl of culture medium (Sigma D6046) supplemented with L-Glutamine (Sigma G7513), Penicillin/Streptomycin (Invitrogen 11058) and FBS (Sigma F9665) on a 96 wells microplate (Becton Dickinson 353072). After 16 hours medium was changed to serum free medium. Galunisertib, as inhibitor ligand (Cayman CAY-15312) and recombinant Human TGF-β2 (R&D Systems 302-B2-002) as activator of the ALK-5, were added in their corresponding wells and incubated following the instructions of the Alphascreen AlphaLISA@SureFire® Ultra™ p-SMAD3(Ser423/425) Kit (Perkin Elmer ALSU-PSM3-A500).

Cc1cccc(-c2nn(CC(=O)Nc3cc(F)cc(C(=O)OC4CCN(C)CC4)c3)cc2-c2ccnc3ccccc23)n1 [Example 8, 1-methylpiperidin-4-yl 3-fluoro-5-(2-(3-(6-methylpyridin-2-yl)-4-(quinolin-4-yl)-1H-pyrazol-1-yl)acetamido)benzoate]
IC50 (Human TGFβR-1): 100 to 250 nM

CCNCCOC(=O)c1cc(F)cc(NC(=O)Cn2cc(-c3ccnc4ccccc34)c(-c3cccc(C)n3)n2)c1 [Example 17, 2-(ethylamino)ethyl 3-fluoro-5-(2-(3-(6-methylpyridin-2-yl)-4-(quinolin-4-yl)-1H-pyrazol-1-yl)acetamido)benzoate]
IC50 (Human TGFβR-1): < 100 nM

Cc1cccc(-c2nn(CC(=O)Nc3ccc(C(=O)OCCN(C)C)cn3)cc2-c2ccnc3ccccc23)n1 [Example 3, 2-(dimethylamino)ethyl 6-(2-(3-(6-methylpyridin-2-yl)-4-(quinolin-4-yl)-1H-pyrazol-1-yl)acetamido)nicotinate]
IC50 (Human TGFβR-1): 100 to 250 nM

Cc1cccc(-c2nn(CC(=O)Nc3cc(F)cc(C(=O)OCCN4CCC4)c3)cc2-c2ccnc3ccccc23)n1 [Example 13, 2-(azetidin-1-yl)ethyl 3-fluoro-5-(2-(3-(6-methylpyridin-2-yl)-4-(quinolin-4-yl)-1H-pyrazol-1-yl)acetamido)benzoate]
IC50 (Human TGFβR-1): 100 to 250 nM

Cc1cccc(-c2nn(CC(=O)Nc3cc(F)cc(C(=O)OCC4CCNCC4)c3)cc2-c2ccnc3ccccc23)n1 [Example 20, piperidin-4-ylmethyl 3-fluoro-5-(2-(3-(6-methylpyridin-2-yl)-4-(quinolin-4-yl)-1H-pyrazol-1-yl)acetamido)benzoate]
IC50 (Human TGFβR-1): 100 to 250 nM

Cc1cccc(-c2nn(CC(=O)Nc3cc(F)cc(C(=O)O[C@@H]4CN5CCC4CC5)c3)cc2-c2ccnc3ccccc23)n1 [Example 11, (S)-quinuclidin-3-yl 3-fluoro-5-(2-(3-(6-methylpyridin-2-yl)-4-(quinolin-4-yl)-1H-pyrazol-1-yl)acetamido)benzoate]
IC50 (Human TGFβR-1): < 100 nM

Cc1cccc(-c2nn(CC(=O)Nc3cc(F)cc(C(=O)O[C@H]4CN5CCC4CC5)c3)cc2-c2ccnc3ccccc23)n1 [Example 10, (R)-quinuclidin-3-yl 3-fluoro-5-(2-(3-(6-methylpyridin-2-yl)-4-(quinolin-4-yl)-1H-pyrazol-1-yl)acetamido)benzoate]
IC50 (Human TGFβR-1): < 100 nM

Cc1cccc(-c2nn(CC(=O)Nc3cc(F)cc(C(=O)OCC4CC4)c3)cc2-c2ccnc3ccccc23)n1 [Comparative example 1, Cyclopropylmethyl 3-fluoro-5-(2-(3-(6-methylpyridin-2-yl)-4-(quinolin-4-yl)-1H-pyrazol-1-yl)acetamido)benzoate, reference compound]
remaining percentage 0 min [1]: 100% | remaining percentage 30 min [1]: 100% | remaining percentage 120 min [1]: 88% | remaining percentage 360 min [1]: 87%

Cc1cccc(-c2nn(CC(=O)Nc3cc(F)cc(C(=O)OCCO)c3)cc2-c2ccnc3ccccc23)n1 [Comparative example 3, 2-hydroxyethyl 3-fluoro-5-(2-(3-(6-methylpyridin-2-yl)-4-(quinolin-4-yl)-1H-pyrazol-1-yl)acetamido)benzoate, reference compound]
remaining percentage 0 min [1]: 100% | remaining percentage 30 min [1]: 99% | remaining percentage 120 min [1]: 96% | remaining percentage 360 min [1]: 73%

Cc1cccc(-c2nn(CC(=O)Nc3cc(F)cc(C(=O)OCCN)c3)cc2-c2ccnc3ccccc23)n1 [Example 16, 2-aminoethyl 3-fluoro-5-(2-(3-(6-methylpyridin-2-yl)-4-(quinolin-4-yl)-1H-pyrazol-1-yl)acetamido)benzoate]
IC50 (Human TGFβR-1): < 100 nM

Cc1cccc(-c2nn(CC(=O)Nc3cc(F)cc(C(=O)OCCN4CCN(C)CC4)c3)cc2-c2ccnc3ccccc23)n1 [Example 6, 2-(4-methylpiperazin-1-yl)ethyl 3-fluoro-5-(2-(3-(6-methylpyridin-2-yl)-4-(quinolin-4-yl)-1H-pyrazol-1-yl)acetamido)benzoate]
IC50 (Human TGFβR-1): 100 to 250 nM | IC50 (ALK-5): < 1000 nM

COC(=O)c1cc(Cl)cc(NC(=O)Cn2cc(-c3ccnc4ccccc34)c(-c3cccc(C)n3)n2)c1 [Comparative example 2, methyl 3-chloro-5-(2-(3-(6-methylpyridin-2-yl)-4-(quinolin-4-yl)-1H-pyrazol-1-yl)acetamido)benzoate, reference compound]
remaining percentage 0 min [1]: 100% | remaining percentage 30 min [1]: 83% | remaining percentage 120 min [1]: 69% | remaining percentage 360 min [1]: 67%

Cc1cccc(-c2nn(CC(=O)Nc3cc(F)cc(C(=O)OCCN4CC4)c3)cc2-c2ccnc3ccccc23)n1 [Example 14, 2-(aziridin-1-yl)ethyl 3-fluoro-5-(2-(3-(6-methylpyridin-2-yl)-4-(quinolin-4-yl)-1H-pyrazol-1-yl)acetamido)benzoate]
IC50 (Human TGFβR-1): < 100 nM

Cc1cccc(-c2nn(CC(=O)Nc3cc(F)cc(C(=O)OCCNC(C)C)c3)cc2-c2ccnc3ccccc23)n1 [Example 18, 2-(isopropylamino)ethyl 3-fluoro-5-(2-(3-(6-methylpyridin-2-yl)-4-(quinolin-4-yl)-1H-pyrazol-1-yl)acetamido)benzoate]
IC50 (Human TGFβR-1): < 100 nM | remaining percentage 0 min [1]: 100% | remaining percentage 30 min [1]: 33.9% | remaining percentage 120 min [1]: 11.1% | remaining percentage 360 min [1]: 0.1%

Cc1cccc(-c2nn(CC(=O)Nc3cncc(C(=O)OCCN(C)C)c3)cc2-c2ccnc3ccccc23)n1 [Example 2, 2-(dimethylamino)ethyl 5-(2-(3-(6-methylpyridin-2-yl)-4-(quinolin-4-yl)-1H-pyrazol-1-yl)acetamido)nicotinate]
IC50 (Human TGFβR-1): < 100 nM

Cc1cccc(-c2nn(CC(=O)Nc3cc(F)cc(C(=O)OC45CCN(CC4)CC5)c3)cc2-c2ccnc3ccccc23)n1 [Example 12, quinuclidin-4-yl 3-fluoro-5-(2-(3-(6-methylpyridin-2-yl)-4-(quinolin-4-yl)-1H-pyrazol-1-yl)acetamido)benzoate]
IC50 (Human TGFβR-1): < 100 nM
